Source: PubChem BioAssay (NCI)
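Growth conditions: 96-well plates. Treatment: test compound, 48 hours, 5 concentrations. Analysis: linear interpolation between bracketing concentrations; unreached endpoints set to highest concentration. TGI marks complete inhibition of growth.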

Tests used:
Test in all cases: growth of human tumour cells (NCI), 48 h
[1] = tested on: HCT-116 colon
[2] = tested on: SW-620 colon
[3] = tested on: OVCAR-8 ovarian
[4] = tested on: SN12C renal
[5] = tested on: M14 melanoma
[6] = tested on: UACC-62 melanoma
[7] = tested on: KM20L2 colon
[8] = tested on: SK-OV-3 ovarian
[9] = tested on: HCT-15 colon
[10] = tested on: HOP-62 NSCLC
[11] = tested on: CCRF-CEM leukemia
[12] = tested on: A498 renal
[13] = tested on: DMS 273 small cell lung
[14] = tested on: MALME-3M melanoma
[15] = tested on: 786-0 renal
[16] = tested on: ACHN renal
[17] = tested on: KM12 colon
[18] = tested on: XF 498 CNS
[19] = tested on: OVCAR-3 ovarian
[20] = tested on: NCI-H460 lung
[21] = tested on: NCI-H522 lung
[22] = tested on: SR leukemia
[23] = tested on: SF-539 CNS
[24] = tested on: U251 CNS
[25] = tested on: LXFL 529 NSCLC
[26] = tested on: RXF 393 renal
[27] = tested on: UO-31 renal
[28] = tested on: NCI-H226 lung
[29] = tested on: IGROV1 ovarian
[30] = tested on: EKVX NSCLC
[31] = tested on: SNB-78 CNS
[32] = tested on: SNB-19 CNS
[33] = tested on: HOP-92 NSCLC
[34] = tested on: OVCAR-4 ovarian
[35] = tested on: MOLT-4 leukemia
[36] = tested on: TK-10 renal
[37] = tested on: RPMI-8226 leukemia
[38] = tested on: SNB-75 CNS
[39] = tested on: UACC-257 melanoma
[40] = tested on: HCC-2998 colon
[41] = tested on: LOX IMVI melanoma
[42] = tested on: HL-60(TB) leukemia
[43] = tested on: OVCAR-5 ovarian
[44] = tested on: M19-MEL melanoma
[45] = tested on: HT29 colon
[46] = tested on: SF-295 CNS
[47] = tested on: SK-MEL-28 melanoma
[48] = tested on: A549 NSCLC
[49] = tested on: K-562 leukemia
[50] = tested on: COLO 205 colon
[51] = tested on: CAKI-1 renal
[52] = tested on: NCI-H23 lung
[53] = tested on: DLD-1 colon
[54] = tested on: SK-MEL-2 melanoma
[55] = tested on: HOP-18 NSCLC
[56] = tested on: DMS 114 small cell lung
[57] = tested on: SF-268 CNS
[58] = tested on: SK-MEL-5 melanoma
[59] = tested on: MDA-MB-435
[60] = tested on: DU-145 prostate
[61] = tested on: BT-549 breast
[62] = tested on: PC-3 prostate
[63] = tested on: MDA-MB-231 breast
[64] = tested on: T-47D breast
[65] = tested on: NCI/ADR-RES ovarian
[66] = tested on: HS 578T breast
[67] = tested on: MCF7 breast
[68] = tested on: MDA-N

## COCCCCCC(=O)CP(=O)(OC)OC
[1]
  TGI: > 100 µM
[2]
  TGI: > 100 µM
[3]
  TGI: > 100 µM
[4]
  TGI: > 100 µM
[5]
  TGI: > 100 µM
[6]
  TGI: > 100 µM
[7]
  TGI: > 100 µM
[8]
  TGI: > 100 µM
[9]
  TGI: > 100 µM
[10]
  TGI: > 100 µM
[11]
  TGI: > 100 µM
[12]
  TGI: > 100 µM
[13]
  TGI: > 100 µM
[14]
  TGI: > 100 µM
[15]
  TGI: > 100 µM
[16]
  TGI: > 100 µM
[17]
  TGI: > 100 µM
[18]
  TGI: > 100 µM
[19]
  TGI: > 100 µM
[20]
  TGI: > 100 µM
[21]
  TGI: > 100 µM
[22]
  TGI: > 100 µM
[23]
  TGI: > 100 µM
[24]
  TGI: > 100 µM
[25]
  TGI: > 100 µM
[26]
  TGI: > 100 µM
[27]
  TGI: > 100 µM
[28]
  TGI: > 100 µM
[29]
  TGI: > 100 µM
[30]
  TGI: > 100 µM
[31]
  TGI: > 100 µM
[32]
  TGI: > 100 µM
[33]
  TGI: > 100 µM
[34]
  TGI: > 100 µM
[35]
  TGI: > 100 µM
[36]
  TGI: > 100 µM
[37]
  TGI: > 100 µM
[38]
  TGI: > 100 µM
[39]
  TGI: > 100 µM
[40]
  TGI: > 100 µM
[41]
  TGI: > 100 µM
[42]
  TGI: > 100 µM
[43]
  TGI: > 100 µM
[44]
  TGI: > 100 µM
[45]
  TGI: > 100 µM
[46]
  TGI: > 100 µM
[47]
  TGI: > 100 µM
[48]
  TGI: > 100 µM
[49]
  TGI: > 100 µM
[50]
  TGI: > 100 µM
[51]
  TGI: > 100 µM
[52]
  TGI: > 100 µM
[53]
  TGI: > 100 µM
[54]
  TGI: > 100 µM
[55]
  TGI: > 100 µM
[56]
  TGI: > 100 µM
[57]
  TGI: > 100 µM
[58]
  TGI: > 100 µM

## Cn1c2ccccc2c2ccc3c(c21)C(=O)C=CC3=O
[1]
  TGI: 10.9 µM
[2]
  TGI: 4.46 µM
[3]
  TGI: 31.1 µM
[4]
  TGI: 26.5 µM
[5]
  TGI: 22.1 µM
[6]
  TGI: 26.7 µM
[7]
  TGI: 33.9 µM
[8]
  TGI: 33.2 µM
[9]
  TGI: 12.1 µM
[59]
  TGI: 10.9 µM
[10]
  TGI: 48 µM
[11]
  TGI: 14.5 µM
[12]
  TGI: > 59.4 µM
[13]
  TGI: 25.8 µM
[14]
  TGI: 12.2 µM
[15]
  TGI: 9.2 µM
[16]
  TGI: 8.33 µM
[17]
  TGI: 60.7 µM
[18]
  TGI: 4.88 µM
[19]
  TGI: 20.9 µM
[20]
  TGI: 46.4 µM
[60]
  TGI: 29.5 µM
[21]
  TGI: 6.36 µM
[22]
  TGI: 15.9 µM
[23]
  TGI: 26.3 µM
[61]
  TGI: 18.9 µM
[62]
  TGI: 12.2 µM
[24]
  TGI: 25.1 µM
[25]
  TGI: 8.26 µM
[26]
  TGI: 5.96 µM
[27]
  TGI: 13.7 µM
[28]
  TGI: 51 µM
[29]
  TGI: 29.9 µM
[30]
  TGI: 38.6 µM
[63]
  TGI: 18.7 µM
[64]
  TGI: 10.7 µM
[31]
  TGI: 48.4 µM
[32]
  TGI: 46.4 µM
[33]
  TGI: 4.66 µM
[34]
  TGI: 4.08 µM
[36]
  TGI: 12.2 µM
[37]
  TGI: 14.6 µM
[38]
  TGI: 32.5 µM
[39]
  TGI: 23.1 µM
[40]
  TGI: 15.1 µM
[41]
  TGI: 10.5 µM
[42]
  TGI: 11.8 µM
[65]
  TGI: 14.4 µM
[43]
  TGI: 28.3 µM
[44]
  TGI: 24.5 µM
[45]
  TGI: 26 µM
[46]
  TGI: 42.1 µM
[47]
  TGI: 25.7 µM
[66]
  TGI: 58.5 µM
[48]
  TGI: 61 µM
[49]
  TGI: > 45.1 µM
[50]
  TGI: 6.9 µM
[51]
  TGI: 11.8 µM
[52]
  TGI: 27.3 µM
[53]
  TGI: 6.02 µM
[54]
  TGI: 29.9 µM
[55]
  TGI: 5.58 µM
[56]
  TGI: 21.5 µM
[57]
  TGI: 30.5 µM
[67]
  TGI: 8.96 µM
[68]
  TGI: 19.3 µM
[58]
  TGI: 31 µM
